Source: US6479435B1, “Diaryl ethers and processes for their preparation and herbicidal and desiccant compositions containing them” (ISK Americas Incorporated, priority 1997, dated 2002)

Tests used:
Format in all cases: in vivo
[1] = system: redroot pigweed (Amaranthus retroflexus, AMARE); test: Post-emerge greenhouse herbicide test, phytotoxicity rating; settings: Amaranthus retroflexus, post-emergence, 336 h, 14 days after application, scale 0-100; for pest or weed control at 63 g/ha: rate 63 g ai/ha; for pest or weed control at 500 g/ha: rate 500 g ai/ha
In short: (§1)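 Plants at the 2-3 leaf stage, sown 8-21 days earlier, were track-sprayed post-emergence with compound in acetone plus 0.25% v/v non-ionic surfactant at 63-1000 g ai/ha (187 l/ha). Damage was rated at 14 days on a 0-100 scale (0 none, 100 all plants dead), for both crop injury and weed control.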

[2] = system: velvetleaf (Abutilon theophrasti, ABUTH); test: as above; settings: Abutilon theophrasti, post-emergence, 336 h, 14 days after application, scale 0-100; for pest or weed control at 63 g/ha: rate 63 g ai/ha; for pest or weed control at 500 g/ha: rate 500 g ai/ha
In short: as §1

[3] = system: sicklepod (Cassia obtusifolia, CASOB); test: as above; settings: Senna obtusifolia, post-emergence, 336 h, 14 days after application, scale 0-100; for pest or weed control at 63 g/ha: rate 63 g ai/ha; for pest or weed control at 500 g/ha: rate 500 g ai/ha
In short: as §1

[4] = system: barnyardgrass (Echinochloa crusgalli, ECHCG); test: as above; settings: Echinochloa crus-galli, post-emergence, 336 h, 14 days after application, scale 0-100; for pest or weed control at 63 g/ha: rate 63 g ai/ha; for pest or weed control at 500 g/ha: rate 500 g ai/ha
In short: as §1

[5] = system: Johnsongrass (Sorghum halepense, SORHA); test: as above; settings: Sorghum halepense, post-emergence, 336 h, 14 days after application, scale 0-100; for pest or weed control at 63 g/ha: rate 63 g ai/ha; for pest or weed control at 500 g/ha: rate 500 g ai/ha
In short: as §1

[6] = system: lambsquarters (Chenopodium album, CHEAL); test: as above; settings: Chenopodium album, post-emergence, 336 h, 14 days after application, scale 0-100; for pest or weed control at 63 g/ha: rate 63 g ai/ha; for pest or weed control at 500 g/ha: rate 500 g ai/ha
In short: as §1

[7] = system: large crabgrass (Digitaria sanguinalis, DIGSA); test: as above; settings: Digitaria sanguinalis, post-emergence, 336 h, 14 days after application, scale 0-100; for pest or weed control at 63 g/ha: rate 63 g ai/ha; for pest or weed control at 500 g/ha: rate 500 g ai/ha
In short: as §1

[8] = system: ivyleaf morningglory (Ipomoea hederacea, IPOHE); test: as above; settings: Ipomoea, post-emergence, 336 h, 14 days after application, scale 0-100; for pest or weed control at 63 g/ha: rate 63 g ai/ha; for pest or weed control at 500 g/ha: rate 500 g ai/ha
In short: as §1

[9] = system: green foxtail (Setaria viridis, SETVI); test: as above; settings: Setaria viridis, post-emergence, 336 h, 14 days after application, scale 0-100; for pest or weed control at 63 g/ha: rate 63 g ai/ha; for pest or weed control at 500 g/ha: rate 500 g ai/ha
In short: as §1

[10] = system: velvetleaf (Abutilon theophrasti, ABUTH); test: Pre-emerge greenhouse herbicide test, phytotoxicity rating; settings: Abutilon theophrasti, pre-emergence, 336 h, 14 days after application, rating scale 0-100; for pest or weed control at 125 g/ha: Rate 125 g al/ha; for pest or weed control at 500 g/ha: Rate 500 g al/ha
In short: (§2)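 Seeds sown in sandy loam one day before track-sprayer application of acetone solutions at 125–1000 g ai/ha (187 l/ha), then surface-watered to incorporate and bottom-watered. Injury scored visually at 14 days on a 0–100 scale (0 no damage, 100 complete death).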

[11] = system: barnyardgrass (Echinochloa crusgalli, ECHCG); test: as above; settings: Echinochloa crus-galli, pre-emergence, 336 h, 14 days after application, rating scale 0-100; for pest or weed control at 125 g/ha: Rate 125 g al/ha; for pest or weed control at 500 g/ha: Rate 500 g al/ha
In short: as §2

[12] = system: Johnsongrass (Sorghum halepense, SORHA); test: as above; settings: Sorghum halepense, pre-emergence, 336 h, 14 days after application, rating scale 0-100; for pest or weed control at 125 g/ha: Rate 125 g al/ha; for pest or weed control at 500 g/ha: Rate 500 g al/ha
In short: as §2

[13] = system: lambsquarters (Chenopodium album, CHEAL); test: as above; settings: Chenopodium album, pre-emergence, 336 h, 14 days after application, rating scale 0-100; for pest or weed control at 125 g/ha: Rate 125 g al/ha; for pest or weed control at 500 g/ha: Rate 500 g al/ha
In short: as §2

[14] = system: ivyleaf morningglory (Ipomoea hederacea, IPOHE); test: as above; settings: Ipomoea, pre-emergence, 336 h, 14 days after application, rating scale 0-100; for pest or weed control at 125 g/ha: Rate 125 g al/ha; for pest or weed control at 500 g/ha: Rate 500 g al/ha
In short: as §2

[15] = system: green foxtail (Setaria viridis, SETVI); test: as above; settings: Setaria viridis, pre-emergence, 336 h, 14 days after application, rating scale 0-100; for pest or weed control at 125 g/ha: Rate 125 g al/ha; for pest or weed control at 500 g/ha: Rate 500 g al/ha
In short: as §2

Row | SMILES | pest or weed control at 63 g/ha [1] [%] | pest or weed control at 500 g/ha [1] [%] | pest or weed control at 63 g/ha [2] [%] | pest or weed control at 500 g/ha [2] [%] | pest or weed control at 63 g/ha [3] [%] | pest or weed control at 500 g/ha [3] [%] | pest or weed control at 63 g/ha [4] [%] | pest or weed control at 500 g/ha [4] [%] | pest or weed control at 63 g/ha [5] [%] | pest or weed control at 500 g/ha [5] [%] | pest or weed control at 63 g/ha [6] [%] | pest or weed control at 500 g/ha [6] [%] | pest or weed control at 63 g/ha [7] [%] | pest or weed control at 500 g/ha [7] [%] | pest or weed control at 63 g/ha [8] [%] | pest or weed control at 500 g/ha [8] [%] | pest or weed control at 63 g/ha [9] [%] | pest or weed control at 500 g/ha [9] [%] | pest or weed control at 125 g/ha [10] [%] | pest or weed control at 500 g/ha [10] [%] | further results
1 | Nn1c(C(F)(F)F)cc(=O)n(-c2cc(Oc3ccccc3[N+](=O)[O-])c(Cl)cc2F)c1=O [Compound 9-21, 1-amino-3-[4-chloro-2-fluoro-5-(2-nitrophenoxy)phenyl]-6-trifluoromethyl-1,2,3,4-tetrahydropyrimidine-2,4-dione] | 100 | 100 | 100 | 100 | 100 | 100 | 70 | 100 | 60 | 90 | 100 | 100 | 30 | 90 | 100 | 100 | 90 | 100 | 100 | 100 | pest or weed control at 125 g/ha [11]: 90%; pest or weed control at 500 g/ha [11]: 100%; pest or weed control at 125 g/ha [12]: 90%; pest or weed control at 500 g/ha [12]: 100%; pest or weed control at 125 g/ha [13]: 100%; pest or weed control at 500 g/ha [13]: 100%; pest or weed control at 125 g/ha [14]: 60%; pest or weed control at 500 g/ha [14]: 100%; pest or weed control at 125 g/ha [15]: 100%; pest or weed control at 500 g/ha [15]: 100%
2 | Nn1c(C(F)(F)F)cc(=O)n(-c2cc(Oc3ccc([N+](=O)[O-])cc3C(F)(F)F)c(Cl)cc2F)c1=O [Compound 9-22, 1-Amino-3-[4-chloro-2-fluoro-5-(4-nitro-2-trifluoromethylphenoxy)phenyl]-6-trifluoromethyl-1,2,3,4-tetrahydropyrimidine-2,4-dione] | 100 | 100 | 100 | 100 | 30 | 70 | 20 | 90 | 0 | 80 | 40 | 100 | 10 | 50 | 100 | 100 | 10 | 80 | 100 | 100 | pest or weed control at 125 g/ha [11]: 50%; pest or weed control at 500 g/ha [11]: 90%; pest or weed control at 125 g/ha [12]: 50%; pest or weed control at 500 g/ha [12]: 95%; pest or weed control at 125 g/ha [13]: 100%; pest or weed control at 500 g/ha [13]: 100%; pest or weed control at 125 g/ha [14]: 90%; pest or weed control at 500 g/ha [14]: 80%; pest or weed control at 125 g/ha [15]: 90%; pest or weed control at 500 g/ha [15]: 100%
3 | Nn1c(C(F)(F)F)cc(=O)n(-c2cc(Oc3cc([N+](=O)[O-])cc(C(F)(F)F)c3)c(Cl)cc2F)c1=O [Compound 9-23, 1-Amino-3-[4-chloro-2-fluoro-5-(3-nitro-5-trifluoromethylphenoxy)phenyl]-6-trifluoromethyl-1,2,3,4-tetrahydropyrimidine-2,4-dione] | 85 | 85 | 45 | 90 | 10 | 30 | 0 | 50 | 0 | 30 | 70 | 95 | 0 | 0 | 50 | 75 | 0 | 10 | 40 | 100 | pest or weed control at 125 g/ha [11]: 10%; pest or weed control at 500 g/ha [11]: 70%; pest or weed control at 125 g/ha [12]: 10%; pest or weed control at 500 g/ha [12]: 70%; pest or weed control at 125 g/ha [13]: 95%; pest or weed control at 500 g/ha [13]: 100%; pest or weed control at 125 g/ha [14]: 0%; pest or weed control at 500 g/ha [14]: 0%; pest or weed control at 125 g/ha [15]: 40%; pest or weed control at 500 g/ha [15]: 100%
4 | Nn1c(C(F)(F)F)cc(=O)n(-c2cc(Oc3ccccc3C(F)(F)F)c(Cl)cc2F)c1=O [Compound 9-24, 1-amino-3-[4-chloro-2-fluoro-5-(2-trifluoromethylphenoxy)phenyl]-6-trifluoromethyl-1,2,3,4-tetrahydropyrimidine-2,4-dione] | 100 | 100 | 100 | 100 | 30 | 80 | 30 | 90 | 30 | 70 | 100 | 100 | 40 | 75 | 100 | 100 | 70 | 95 | 99 | 100 | pest or weed control at 125 g/ha [11]: 60%; pest or weed control at 500 g/ha [11]: 70%; pest or weed control at 125 g/ha [12]: 30%; pest or weed control at 500 g/ha [12]: 90%; pest or weed control at 125 g/ha [13]: 100%; pest or weed control at 500 g/ha [13]: 100%; pest or weed control at 125 g/ha [14]: 30%; pest or weed control at 500 g/ha [14]: 30%; pest or weed control at 125 g/ha [15]: 100%; pest or weed control at 500 g/ha [15]: 100%
